Data reported in publication PMC3063099 (Xenobiotica; the fate of foreign compounds in biological …, 2010).
Read-outs that look alike come from different tables or passages of the source. Blank lines part the entries; values can stand above or below the molecule they belong to.

Experiments:
[1] = biological target: T1, CYP3A4 mutant L211F/D214E (Homo sapiens, UniProt P08684, D214E/L211F); assay: Titration-by-dilution monitored by FRET; assay type: binding; conditions: for Efficiency of FRET: L211F/D214E
T1 sequence (P08684 whole entry L211F/D214E): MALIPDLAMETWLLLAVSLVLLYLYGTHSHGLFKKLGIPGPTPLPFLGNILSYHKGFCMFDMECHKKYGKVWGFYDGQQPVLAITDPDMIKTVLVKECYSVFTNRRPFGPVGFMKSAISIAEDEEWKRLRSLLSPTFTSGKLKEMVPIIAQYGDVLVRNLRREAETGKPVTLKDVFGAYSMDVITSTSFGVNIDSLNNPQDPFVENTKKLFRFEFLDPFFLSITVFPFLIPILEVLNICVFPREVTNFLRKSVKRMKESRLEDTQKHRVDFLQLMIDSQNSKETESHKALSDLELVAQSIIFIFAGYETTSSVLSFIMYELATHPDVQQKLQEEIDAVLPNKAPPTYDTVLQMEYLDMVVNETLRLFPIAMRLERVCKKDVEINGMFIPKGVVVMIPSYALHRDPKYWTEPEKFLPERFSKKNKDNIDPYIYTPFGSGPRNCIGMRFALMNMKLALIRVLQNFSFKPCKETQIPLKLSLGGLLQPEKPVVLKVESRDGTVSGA

[2] = biological target: T1, CYP3A4 mutant L211F/D214E; assay: Absorbance titration, substrate-induced spin shift; conditions: for nH (Hill coefficient): Hill equation fit; for Kd: human, pH 7.4
CYP3A4 mutant F213W [3] = biological target: T2, CYP3A4 mutant F213W (Homo sapiens, UniProt P08684, F213W); assay: Absorbance titration, substrate-induced spin shift; conditions: for nH (Hill coefficient): Hill equation fit; for Kd: human, pH 7.4
T2 sequence (P08684 whole entry F213W): as the sequence (P08684 whole entry L211F/D214E) above, with F211L, F213W, E214D counted along it

CYP3A4 wild type [4] = biological target: T3, CYP3A4 wild type (Homo sapiens, UniProt P08684); assay: Absorbance titration, substrate-induced spin shift; conditions: for Kd: human, pH 7.4; for nH (Hill coefficient): Hill equation fit
T3 sequence (P08684 whole entry): as the sequence (P08684 whole entry L211F/D214E) above, with F211L, E214D counted along it

CYP3A4 mutant F304W [5] = biological target: T4, CYP3A4 mutant F304W (Homo sapiens, UniProt P08684, F304W); assay: Titration-by-dilution monitored by FRET; assay type: binding; conditions: for Efficiency of FRET: F304W
T4 sequence (P08684 whole entry F304W): as the sequence (P08684 whole entry L211F/D214E) above, with F211L, E214D, F304W counted along it

[6] = biological target: T1, CYP3A4 mutant L211F/D214E; assay: Titration-by-dilution at excess substrate monitored by spin shift; assay type: binding
CYP3A4 mutant F304W [7] = biological target: T4, CYP3A4 mutant F304W; assay: Absorbance titration, substrate-induced spin shift; conditions: for nH (Hill coefficient): Hill equation fit; for Kd: human, pH 7.4
CYP3A4 wild type [8] = biological target: T3, CYP3A4 wild type; assay: Titration-by-dilution at excess substrate monitored by spin shift; assay type: binding
CYP3A4 wild type [9] = biological target: T3, CYP3A4 wild type; assay: Titration-by-dilution monitored by FRET; assay type: binding; conditions: for Efficiency of FRET: wild type
CYP3A4 mutant F213W [10] = biological target: T2, CYP3A4 mutant F213W; assay: Titration-by-dilution at excess substrate monitored by spin shift; assay type: binding
CYP3A4 mutant F304W [11] = biological target: T4, CYP3A4 mutant F304W; assay: as above; assay type: binding
CYP3A4 mutant F213W [12] = biological target: T2, CYP3A4 mutant F213W; assay: Titration-by-dilution monitored by FRET; assay type: binding; conditions: for Efficiency of FRET: F213W
CYP3A4 mutant F304W [13] = biological target: T4, CYP3A4 mutant F304W; conditions: pH 7.4
[14] = biological target: T1, CYP3A4 mutant L211F/D214E; conditions: pH 7.4
CYP3A4 mutant F213W [15] = biological target: T2, CYP3A4 mutant F213W; conditions: pH 7.4
CYP3A4 wild type [16] = biological target: T3, CYP3A4 wild type; conditions: pH 7.4
[17] = equimolar enzyme-substrate mixture
[18] = human, CYP3A4 wild type enzyme in buffer, pH 7.4

Structure (SMILES): OCCCCc1ccc2ccc3cccc4ccc1c2c34 [1-PB, 1-pyrenebutanol]
Kd ([1]; KD1, L211F/D214E, equimolar enzyme-substrate mixture, FRET, 0.6 mg/ml HPCD): 0.82 ± 0.43 µM | Efficiency of FRET [1, 17]: 108.4 ± 12.9% | Efficiency of FRET ([1]; excess substrate (1:6)): 83.4 ± 16.4% | nH (Hill coefficient) ([2]; L211F/D214E, pH 7.4, 25 °C): 1.07 ± 0.17 | nH (Hill coefficient) ([2]; L211F/D214E, pH 7.4, 25 °C, listed as 1-pyrenebutanol): ≤ 1.1 | Δhmax, amplitude of the substrate-induced spin shift ([2]; L211F/D214E, absorbance titration, pH 7.4, 25 °C): 39.4 ± 5.1% | FES, fraction of total spin shift caused by the binary complex ES ([2]; L211F/D214E, fit to improved sequential model, KD1 fixed): 21.0 ± 5.7% | Kd ([2]; 0.1 m na-hepes): 12.1 ± 1.8 µM | nH (Hill coefficient) (CYP3A4 mutant F213W [3]; F213W, pH 7.4, 25 °C): 1.07 ± 0.16 | nH (Hill coefficient) (CYP3A4 mutant F213W [3]; F213W, pH 7.4, 25 °C, listed as 1-pyrenebutanol): ≤ 1.1 | Δhmax, amplitude of the substrate-induced spin shift (CYP3A4 mutant F213W [3]; F213W, absorbance titration, pH 7.4, 25 °C): 57.0 ± 5.9% | FES, fraction of total spin shift caused by the binary complex ES (CYP3A4 mutant F213W [3]; F213W, fit to improved sequential model, KD1 fixed): 7.9 ±1.0% | Kd (CYP3A4 mutant F213W [3]; 0.1 m na-hepes): 12.6 ± 4.6 µM | Kd (CYP3A4 wild type [4]; 0.1 m na-hepes): 11.7 ± 2.4 µM | Kd (CYP3A4 wild type [4]): 12.6 µM | nH (Hill coefficient) (CYP3A4 wild type [4]; wild type, pH 7.4, 25 °C): 1.67 ± 0.18 | nH (Hill coefficient) (CYP3A4 wild type [4]; wild type, pH 7.4, 25 °C, listed as 1-pyrenebutanol): around 1.7 | Δhmax, amplitude of the substrate-induced spin shift (CYP3A4 wild type [4]; wild type, absorbance titration, pH 7.4, 25 °C): 46.7 ± 4.9% | FES, fraction of total spin shift caused by the binary complex ES (CYP3A4 wild type [4]; wild type, fit to improved sequential model): 0 | Efficiency of FRET (CYP3A4 mutant F304W [5]; [17]): 99.6 ± 7.8% | Efficiency of FRET (CYP3A4 mutant F304W [5]; excess substrate (1:6)): 109.0 ± 1.6% | Kd (CYP3A4 mutant F304W [5]; KD1, F304W, equimolar enzyme-substrate mixture, FRET, 0.6 mg/ml HPCD): 0.26 ± 0.08 µM | Δhmax, maximal amplitude of the spin shift deduced from fitting ([6]; L211F/D214E, dilution at excess substrate (1:5)): 18.2 ± 7.1% | Kd ([6]; human, CYP3A4 mutant L211F/D214E enzyme in buffer, pH 7.4): 7.3 ± 2.9 µM | nH (Hill coefficient) (CYP3A4 mutant F304W [7]; F304W, pH 7.4, 25 °C): 1.07 ± 0.12 | nH (Hill coefficient) (CYP3A4 mutant F304W [7]; F304W, pH 7.4, 25 °C, listed as 1-pyrenebutanol): ≤ 1.1 | Δhmax, amplitude of the substrate-induced spin shift (CYP3A4 mutant F304W [7]; F304W, absorbance titration, pH 7.4, 25 °C): 57.7 ± 5.6% | FES, fraction of total spin shift caused by the binary complex ES (CYP3A4 mutant F304W [7]; F304W, fit to improved sequential model, KD1 fixed): 15.1 ± 0.8% | Kd (CYP3A4 mutant F304W [7]; 0.1 m na-hepes): 10.7 ± 2 µM | Kd (CYP3A4 wild type [8]; [18]): 10.2 ± 1.2 µM | Δhmax, maximal amplitude of the spin shift deduced from fitting (CYP3A4 wild type [8]; wild type, dilution at excess substrate (1:5)): 49.7 ± 7.3% | Kd (CYP3A4 wild type [9]): 0.25 ± 0.11 µM | Kd (CYP3A4 wild type [9]; [18]): 5 ± 1.1 µM | Efficiency of FRET (CYP3A4 wild type [9]; [17]): 95.2 ± 5.7% | Efficiency of FRET (CYP3A4 wild type [9]; excess substrate (1:4)): 108.0 ± 1.2% | Δhmax, maximal amplitude of the spin shift deduced from fitting (CYP3A4 mutant F213W [10]; F213W, dilution at excess substrate (1:5)): 40.0 ± 16% | Kd (CYP3A4 mutant F213W [10]; human, CYP3A4 mutant F213W enzyme in buffer, pH 7.4): 14.4 ± 1.5 µM | Δhmax, maximal amplitude of the spin shift deduced from fitting (CYP3A4 mutant F304W [11]; F304W, dilution at excess substrate (1:5)): 23.2 ± 14.0% | Kd (CYP3A4 mutant F304W [11]; human, CYP3A4 mutant F304W enzyme in buffer, pH 7.4): 11.4 ± 1.1 µM | Efficiency of FRET (CYP3A4 mutant F213W [12]; [17]): 80.8 ± 26.4% | Efficiency of FRET (CYP3A4 mutant F213W [12]; excess substrate (1:5)): 109.0 ± 2.0% | Kd (CYP3A4 mutant F213W [12]; KD1, F213W, equimolar enzyme-substrate mixture, FRET, 0.6 mg/ml HPCD): 0.07 ± 0.04 µM

nH (Hill coefficient) ([2]; L211F/D214E, pH 7.4, 25 °C): 1.68 ± 0.16 | Kd ([2]; CYP3A4 mutant L211F/D214E enzyme in buffer): 3.67 ± 1.16 µM | nH (Hill coefficient) (CYP3A4 mutant F213W [3]; F213W, pH 7.4, 25 °C): 1.52 ± 0.30 | Kd (CYP3A4 mutant F213W [3]; CYP3A4 mutant F213W enzyme in buffer): 3.5 ± 1.36 µM | Kd (CYP3A4 wild type [4]; CYP3A4 wild type enzyme in buffer): 3.66 ± 0.7 µM | nH (Hill coefficient) (CYP3A4 wild type [4]; wild type, pH 7.4, 25 °C): 2.04 ± 0.30 | Δhmax, amplitude of the substrate-induced spin shift (CYP3A4 mutant F304W [13]): 36.0 ± 5.2% | Δhmax, amplitude of the substrate-induced spin shift [14]: 27.9 ± 2.2% | Δhmax, amplitude of the substrate-induced spin shift (CYP3A4 mutant F213W [15]): 33.5 ± 2.1% | nH (Hill coefficient) (CYP3A4 mutant F304W [7]; F304W, pH 7.4, 25 °C): 2.10 ± 0.20 | Kd (CYP3A4 mutant F304W [7]; CYP3A4 mutant F304W enzyme in buffer): 3.63 ± 1.46 µM | Δhmax, amplitude of the substrate-induced spin shift (CYP3A4 wild type [16]): 40.0 ± 2.5%
Structure (SMILES): O=c1cc(-c2ccccc2)oc2c1ccc1ccccc12 [ANF, α-naphthoflavone]
